Values after ≈ are worked out from the molar mass of the structure shown. Values joined by “and” are separate entries in the source; they are usually repeats but may differ in a detail not shown here. Equal values may be shown once. Read-outs that look alike come from different tables or passages of the source.
Columns and labels:
HIV-1 LAV = assay: Inhibition of inducible HIV-1 LAV replication in OM-10.1 (RT values); assay type: cell-based, human immunodeficiency virus type 1; details: for RT Values: SAMPLE 1-3, MEAN
Zika virus MR766 = assay: Zika virus antiviral screen in HuH-7; assay type: cell-based; details: for activity versus Zika virus MR766: words; for EC90: Visual (Virus yield reduction), unit from Conc. Range
[1] = system: Japanese encepahalitis virus SA-14; assay: Japanese encephalitis virus antiviral screen in Vero 76; assay type: cell-based; details: JEV SA-14, Vero 76
[2] = system: West Nile virus Kern 515, WN02; assay: West Nile virus antiviral screen in Vero 76; assay type: cell-based
RD = assay: Cytotoxicity on RD host cells; assay type: cell-based
OM-10.1 cells = assay: Toxicity in OM-10.1 (Cell Titer 96); details: for TOXICITY VALUES (Cell Titer 96): SAMPLE 1-3, MEAN
Tacaribe TRVL11573 = assay: microbe, parasite or virus in culture; assay type: cell-based, Tacaribe virus; details: Mammarenavirus tacaribeense, Vero
[3] = Cytotoxicity on RD host cells; assay type: cell-based; details: human, RD cells
cytosolic GRs = target: T1, cytosolic GRs (Homo sapiens, UniProt P04150); assay: Binding to cytosolic glucocorticoid receptors
T1 sequence (P04150 1-777): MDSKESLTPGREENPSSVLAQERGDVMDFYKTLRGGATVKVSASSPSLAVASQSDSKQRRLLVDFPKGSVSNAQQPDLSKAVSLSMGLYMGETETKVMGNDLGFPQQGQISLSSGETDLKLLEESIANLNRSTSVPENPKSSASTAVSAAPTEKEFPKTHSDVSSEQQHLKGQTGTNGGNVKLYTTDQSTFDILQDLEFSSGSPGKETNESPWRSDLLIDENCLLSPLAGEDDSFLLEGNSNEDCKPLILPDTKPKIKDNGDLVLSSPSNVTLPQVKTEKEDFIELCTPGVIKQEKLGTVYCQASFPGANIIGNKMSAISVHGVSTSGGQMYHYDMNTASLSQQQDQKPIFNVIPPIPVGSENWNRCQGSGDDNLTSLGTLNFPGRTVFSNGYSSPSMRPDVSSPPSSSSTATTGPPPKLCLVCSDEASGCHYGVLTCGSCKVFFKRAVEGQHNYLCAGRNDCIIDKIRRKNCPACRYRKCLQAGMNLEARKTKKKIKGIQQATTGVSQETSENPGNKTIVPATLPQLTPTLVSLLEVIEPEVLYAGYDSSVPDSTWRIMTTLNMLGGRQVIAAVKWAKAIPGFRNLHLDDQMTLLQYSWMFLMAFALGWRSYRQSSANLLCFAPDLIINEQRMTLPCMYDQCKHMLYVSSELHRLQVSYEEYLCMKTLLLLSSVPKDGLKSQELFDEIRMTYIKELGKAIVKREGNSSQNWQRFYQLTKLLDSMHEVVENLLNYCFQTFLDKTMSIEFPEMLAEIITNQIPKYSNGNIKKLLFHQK

MDCK = details: dog
HG23 = details: human
GR = GR (Mus musculus, UniProt P06537); details: cited from earlier work
[4] = cited from earlier work
in vitro [5] = details: African green monkey
in vitro [6] = details: dog
[7] = Toxicity in RAW267.4 cells (neutral red); details: mouse, RAW267.4 cells, CC50, Neutral Red (Toxicity), Example 11
[8] = Cytotoxicity on primary human foreskin fibroblasts; details: human
[9] = Visual (Cytopathic effect/Toxicity), unit from Conc. Range

Sequence of GR (P06537 whole entry): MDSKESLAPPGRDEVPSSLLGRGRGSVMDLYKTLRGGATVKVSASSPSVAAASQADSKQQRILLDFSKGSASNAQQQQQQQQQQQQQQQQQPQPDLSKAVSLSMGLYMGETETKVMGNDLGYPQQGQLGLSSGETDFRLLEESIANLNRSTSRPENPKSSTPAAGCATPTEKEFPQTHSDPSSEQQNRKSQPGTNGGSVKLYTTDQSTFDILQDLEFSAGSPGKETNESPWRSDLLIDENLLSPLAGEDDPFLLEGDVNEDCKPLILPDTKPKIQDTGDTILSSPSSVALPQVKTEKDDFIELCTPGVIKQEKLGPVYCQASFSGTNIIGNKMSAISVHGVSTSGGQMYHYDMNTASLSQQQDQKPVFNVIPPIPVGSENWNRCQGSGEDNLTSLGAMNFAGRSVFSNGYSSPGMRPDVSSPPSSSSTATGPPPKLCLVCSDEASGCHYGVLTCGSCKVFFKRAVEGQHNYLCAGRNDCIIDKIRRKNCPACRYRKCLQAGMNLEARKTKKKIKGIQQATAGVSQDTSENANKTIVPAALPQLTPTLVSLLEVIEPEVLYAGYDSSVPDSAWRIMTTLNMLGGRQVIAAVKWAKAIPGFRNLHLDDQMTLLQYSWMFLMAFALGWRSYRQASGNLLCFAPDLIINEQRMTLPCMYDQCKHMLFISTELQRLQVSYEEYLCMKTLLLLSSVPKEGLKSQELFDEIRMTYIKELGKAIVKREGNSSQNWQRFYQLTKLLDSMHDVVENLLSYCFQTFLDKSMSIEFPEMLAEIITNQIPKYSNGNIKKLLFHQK

CC#CC1(O)CCC2C3CCC4=CC(=NNC(N)=S)CCC4=C3C(c3ccc4c(c3)OCO4)CC21C.CC#CC1(O)CCC2C3CCC4=CC(=O)CCC4=C3C(c3ccc4c(c3)OCO4)CC21C.CC(C)=O.CCO.O (stereo not drawn) [PT155, ⅓ (11β,17β)-17-Hydroxy-11-[3,4-(methylenedioxy)phenyl]-17-(1-propyn-1-yl)estra-4,9-dien-3-one (ORG34517)×(2EZ)-2-{(11β,17β)-17-hydroxy-11-[3,4-(methylenedioxy)phenyl]-17-(1-propyn-1-yl)estra-4,9-dien-3-ylidene}hydrazinecarbothioamide [71.8% (E), 28.2% (Z)] hemihydrate×¾% acetone× ⅛ ethanol]
% VC (HIV-1 LAV; 0.01 μM): 100.0% | RT Values (HIV-1 LAV; 0.01 μM): 32320 cpm and 29982 cpm and 29144 cpm | % VC (HIV-1 LAV; 0.03 μM): 107.7% | RT Values (HIV-1 LAV; 0.03 μM): 33018 cpm and 33056 cpm and 32387 cpm | % VC (HIV-1 LAV; 0.10 μM): 99.8% | RT Values (HIV-1 LAV; 0.10 μM): 29801 cpm and 29663 cpm and 31726 cpm | % VC (HIV-1 LAV; 1.00 μM): 82.2% | RT Values (HIV-1 LAV; 1.00 μM): 23474 cpm and 26693 cpm and 24955 cpm | % VC (HIV-1 LAV; 3.16 μM): 57.9% | RT Values (HIV-1 LAV; 3.16 μM): 16156 cpm and 21122 cpm and 15662 cpm | % VC (HIV-1 LAV; 10.0 μM): 28.9% | RT Values (HIV-1 LAV; 10.0 μM): 8592 cpm and 7827 cpm and 10011 cpm | % VC (HIV-1 LAV; 31.6 μM): 15.8% | RT Values (HIV-1 LAV; 31.6 μM): 4254 cpm and 4765 cpm and 5466 cpm | % VC (HIV-1 LAV; 100 μM): 0.8% | IC50 (HIV-1 LAV; OM-10.1): 4.33 µM | IC90 (HIV-1 LAV; OM-10.1): 49.4 µM | IC 95% (HIV-1 LAV; OM-10.1): 72.4 µM | EC50 (HIV-1 LAV; OM-10.1, Table 7, read-out: EC50): 4.33 µM | EC90 (HIV-1 LAV; OM-10.1, Table 7, read-out: EC90): 49.4 µM | activity versus Zika virus MR766 (Zika virus MR766; HuH-7 cells): highly active | EC50 (Zika virus MR766; MR766, HuH-7, Neutral red): 0.81 µg/mL | EC50 (Zika virus MR766; MR766, HuH-7, Visual): 0.32 µg/mL | EC50 (Zika virus MR766; Neutral Red (Cytopathic effect/Toxicity), Zika virus MR766, HUH7, Example 9): 0.056 µg/mL | EC90 (Zika virus MR766; Zika virus MR766, HUH7, Example 9): 0.82 µg/mL | EC50 (Zika virus MR766; Zika MR766, HuH-7, Tables 5-6, read-out: EC50 NR): 0.45 µM | EC50 (Zika virus MR766; Zika MR-766, HUH7, Tables 2-3, read-out: EC50): 0.45 µM | EC50 (Zika virus MR766; Zika virus MR766, HuH-7, Table 10, read-out: EC50): 0.45 µM | activity versus Zika virus MR766 (Zika virus MR766; cells not expressing functional hGRalpha): generally not active | EC50 ([1]; Neutral Red (Cytopathic effect/Toxicity)): 2.6 µg/mL | EC50 [1, 9]: 2.6 µg/mL | EC50 ([2]; Neutral Red): >55 µg/mL | EC50 [2, 9]: >22 µg/mL | CC50 (RD; Enterovirus D68 screen, Neutral red): 8.1 µg/mL | CC50 (RD; Enterovirus D68 screen, Visual): 3.2 µg/mL | CC50 (RD; read-out: Cytotoxicity 50% CC50, Enterovirus D68 screen, Tables 5-6): 5.8 µM | CC50 (PBMC): 82.6 µM | CC50 (HuH-7): 39.7 µM | CC50 (Vero 76): 45.4 µM | CC50 (MA-104): 17 µM | % CC (OM-10.1 cells; 0.01 μM): 93.9% | TOXICITY VALUES (Cell Titer 96) (OM-10.1 cells; 0.01 μM): 0.707 O.D. @ 490/650 nm and 0.669 O.D. @ 490/650 nm and 0.567 O.D. @ 490/650 nm | % CC (OM-10.1 cells; 0.03 μM): 105.6% | TOXICITY VALUES (Cell Titer 96) (OM-10.1 cells; 0.03 μM): 0.749 O.D. @ 490/650 nm and 0.794 O.D. @ 490/650 nm and 0.642 O.D. @ 490/650 nm | % CC (OM-10.1 cells; 0.10 μM): 110.0% | TOXICITY VALUES (Cell Titer 96) (OM-10.1 cells; 0.10 μM): 0.867 O.D. @ 490/650 nm and 0.820 O.D. @ 490/650 nm and 0.590 O.D. @ 490/650 nm | % CC (OM-10.1 cells; 1.00 μM): 119.25% | TOXICITY VALUES (Cell Titer 96) (OM-10.1 cells; 1.00 μM): 0.937 O.D. @ 490/650 nm and 0.911 O.D. @ 490/650 nm and 0.618 O.D. @ 490/650 nm | % CC (OM-10.1 cells; 3.16 μM): 109.6% | TOXICITY VALUES (Cell Titer 96) (OM-10.1 cells; 3.16 μM): 0.896 O.D. @ 490/650 nm and 0.800 O.D. @ 490/650 nm and 0.572 O.D. @ 490/650 nm | % CC (OM-10.1 cells; 10.0 μM): 105.7% | TOXICITY VALUES (Cell Titer 96) (OM-10.1 cells; 10.0 μM): 0.828 O.D. @ 490/650 nm and 0.761 O.D. @ 490/650 nm and 0.599 O.D. @ 490/650 nm | % CC (OM-10.1 cells; 31.6 μM): 93.4% | TOXICITY VALUES (Cell Titer 96) (OM-10.1 cells; 31.6 μM): 0.714 O.D. @ 490/650 nm and 0.682 O.D. @ 490/650 nm and 0.536 O.D. @ 490/650 nm | % CC (OM-10.1 cells; 100 μM): 112.5% | TOXICITY VALUES (Cell Titer 96) (OM-10.1 cells; 100 μM): 0.777 O.D. @ 490/650 nm and 0.775 O.D. @ 490/650 nm | TC 90% (OM-10.1 cells; OM-10.1): >100 µM | TC 95% (OM-10.1 cells; OM-10.1): >100 µM | CC50 (OM-10.1 cells; OM-10.1, Table 7): > 100 µM | CC50 (OM-10.1 cells; read-out: TC 50%, OM-10.1): > 100 µM

CC#C[C@]1(O)CC[C@H]2[C@@H]3CCC4=CC(=O)CCC4=C3[C@@H](c3ccc4c(c3)OCO4)C[C@@]21C [PT150, (11β,17β)-11-(1,3-benzodioxol-5-yl)-17-hydroxy-17-(1-propynyl)-estra-4,9-dien-3-one]
EC90 (Zika virus MR766; Huh-7, Zika virus MR766, HUH7, Example 9, read-out: EC90): 1.27 µg/mL (≈ 2.95 µM) | EC50 (Zika virus MR766; Zika virus, Huh-7, MR766, HuH-7, Neutral red, read-out: EC50): 3 µg/mL | EC50 (Zika virus MR766; Zika virus, Huh-7, MR766, HuH-7, Visual, read-out: EC50): 3.2 µg/mL | EC50 (Zika virus MR766; Zika virus, Huh-7, Neutral Red (Cytopathic effect/Toxicity), Zika virus MR766, HUH7, Example 9, read-out: EC50): 1.6 µg/mL | EC50 (Zika virus MR766; Zika virus, Huh-7, Zika MR766, HuH-7, Tables 5-6, read-out: EC50 NR): 7.4 µM | EC50 (Zika virus MR766; Zika virus, Huh-7, Zika MR-766, HUH7, Tables 2-3, read-out: EC50): 7.4 µM | EC50 (Zika virus MR766; Zika virus, Huh-7, Zika virus MR766, HuH-7, Table 10, read-out: EC50): 7.4 µM | Selectivity index 50% SI50 (Zika virus MR766; Zika, HuH-7, Tables 5-6): 1.0 | EC50 (Tacaribe TRVL11573): 7.2 µM and 3.1 µg/mL | CC50 ([3]; Cytotoxicity 50% CC50, Enterovirus D68 screen, Tables 5-6): 10.2 µM | CC50 ([3]; Enterovirus 68 screen, Table 4, read-out: CC50): 10.2 µM | CC50 ([3]; Enterovirus D68 screen, Neutral red, read-out: CC50): 2.6 µg/mL | CC50 ([3]; Enterovirus D68 screen, Visual, read-out: CC50): 3.2 µg/mL | selectivity ratio (GR/PR) (cytosolic GRs): 57 | CC50 (MDCK): 37 µg/mL (≈ 85.9 µM) | CC50 (HG23): 8.7 µM | block of corticosterone-induced GR translocation (GR): able to block corticosterone-induced GR translocation | adverse indications of cell toxicity ([4]; Phase II, patients, 900 mg per day for 2 weeks): no noted adverse indications of cell toxicity | significant toxicities and side effects ([4]; phase I and phase II clinical trials): none were identified | CC50 (in vitro [5]): 10.9 µM | CC50 (in vitro [6]; CC50): 29 µg/mL | CC50 (in vitro [6]; Cytotoxicity 50% CC50): 17 µM | CC50 [7]: 33 µM | CC50 ([8]; primary HFF-1 human foreskin fibroblasts, CC50): > 150 µM | CC50 ([8]; primary HFF-1 human foreskin fibroblasts, CC50, Cytotoxicity control, Primary HFF-1, CellTiter-Glo): > 150 µM | CC50 ([8]; primary human foreskin fibroblasts (HFF / HFF-1), CC50, HFF / HFF-1 primary cells): > 150 µM | CC50 ([8]; primary human foreskin fibroblasts (HFF-1), CC50, Herpes simplex virus type 1 screen, Primary HFF-1, CellTiter-Glo): > 150 µM

Reference: patent publication US9598459B2, “Pharmaceutical compositions and methods” (priority 2015, dated 2017)
